Reference: patent publication US8937091B2 (Japan Science and Technology Agency, priority 2009, dated 2015)

What was measured:
[1] = tested on: IICR (IP3 induced calcium release) in CHO cells; assay: Assay of IICR (IP3 induced calcium release)-inhibiting action; assay type: cell-based, Chinese hamster; conditions: Cricetulus griseus, CHO, CHO cells, 10 μM ATP, read-out: IICR level (percentage of inhibition); for inhibition at 10 µM: test compound 10 μmol; for inhibition at 30 µM: test compound 30 μmol; for inhibition at 100 µM: test compound 100 μmol
In short: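 Inhibition (%) of the intracellular calcium increase triggered by 10 μM ATP, measured in CHO cells in BSS with calcium. Compound given 1 min after the buffer exchange and 2 min before ATP; values reported per compound concentration.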

[2] = tested on: SOCE (store operated calcium entry) in CHO cells; assay: Assay of SOCE (store operated calcium entry)-inhibiting action; assay type: cell-based, Chinese hamster; conditions: Cricetulus griseus, CHO, CHO cells, thapsigargin, read-out: SOCE level (percentage of inhibition); for inhibition at 10 µM: test compound 10 μmol; for inhibition at 30 µM: test compound 30 μmol; for inhibition at 100 µM: test compound 100 μmol
In short: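 CHO cells in calcium-free BSS received compound, then 1 μM thapsigargin 2 min later to deplete stores; after 9 min, 2 mM calcium chloride (final) added. Percent inhibition of the rise in intracellular calcium determined at various compound concentrations.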

| SMILES | inhibition at 10 µM [1] [%] | inhibition at 30 µM [1] [%] | inhibition at 100 µM [1] [%] | inhibition at 10 µM [2] [%] | inhibition at 30 µM [2] [%] | inhibition at 100 µM [2] [%] |
| --- | --- | --- | --- | --- | --- | --- |
| O=C(CCNCCN(CCO)CCC(=O)c1ccc(Br)s1)c1ccc(Br)s1 [Example 354, 2-(N-5-bromothionylethylaminoethyl-N-hydroxyethyl)aminoethyl-5-bromo-2-thienylketone] | 0 | 0 | 60 | 0 | 10 | 10 |
| N#Cc1ccc(C(=O)CCNCCSSCCNCCC(=O)c2ccc(C#N)cc2)cc1 [Example 398] | 1 | 44 | 80 | 20 | 40 | 50 |
| O=C(CCCCl)c1ccncc1 [Example 192, 3-chloropropyl-4-pyridylketone] | 0 | 0 | 0 | 0 | 10 | 20 |
| CC(C)N(CCO)CCC(=O)N1CCCCCC1=O [Example 201, 3-(N-hydroxyethylisopropyl)aminopropionylcaprolactam] | 0 | 0 | 0 | 0 | 0 | 0 |
| CCC(CO)(CO)NCCC(=O)c1ccc(Br)s1 [Example 365, 2-(N-1,1-bishydroxymethylpropyl)aminoethyl-5-bromo-2-thienylketone] | 0 | 0 | 70 | 0 | 0 | 10 |
| CCCCN(CCC(=O)c1ccc(Br)cc1)Cc1ccccc1 [Example 375, 2-(N-butyl-N-benzyl)aminoethyl-4-bromophenylketone] | 0 | 33 | 0 | 4 | 0 | 40 |
| CCN(CCC(=O)c1ccc(C)s1)Cc1ccccc1 [Example 319, 2-(N-benzylethyl)aminoethyl-5-methyl-2-thienylketone] | 20 | 10 | 70 | 0 | 10 | 20 |
| Cc1csc(C(=O)CCN(C)Cc2ccccc2)n1 [Example 265, 2-(N-benzylmethyl)aminoethyl-4-methyl-2-thiazolylketone] | 0 | 0 | 70 | 10 | 10 | 10 |
| CC(C)(C)N(CCC(=O)c1ccccn1)Cc1ccccc1 [Example 94, 2-(N-t-butylbenzyl)aminoethyl-2-pyridylketone] | 30 | 90 | 100 | 0 | 0 | 0 |
| COC(=O)C(CSSCC(NCCC(=O)c1ccc(C#N)cc1)C(=O)OC)NCCC(=O)c1ccc(C#N)cc1 (stereo not drawn) [Example 399, N,N-bis(4-cyanobenzoylethyl)cystinemethylester] | 0 | 0 | 70 | 20 | 40 | 50 |
| CC(C)N(CC(=O)c1ccc(F)cc1)Cc1ccccc1 [Example 196, 1-(N-benzylisopropyl)aminomethyl-4-fluorophenylketone] | 0 | 10 | 30 | 0 | 20 | 40 |
| Cc1nc(C)c(C(=O)CCNCCNCCO)s1 [Example 220, 2-(N-2-hydroxyaminoethyl)aminoethyl-5-(2,4-dimethylthiazolyl)ketone] | 0 | 40 | 40 | 0 | 0 | 0 |
